Laboratory results reported in PubChem BioAssay (NCI).
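Cultured in 96-well plates, cells were exposed to test compound for 48 hours across five concentrations. TGI marks complete inhibition of growth.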

Columns and labels:
Assay in all cases: NCI tumour cell line growth inhibition, 48 h
MOLT-4 leukemia = test system: MOLT-4 leukemia
HCT-15 colon = test system: HCT-15 colon
PC-3 prostate = test system: PC-3 prostate
EKVX NSCLC = test system: EKVX NSCLC
SK-MEL-28 melanoma = test system: SK-MEL-28 melanoma
A498 renal = test system: A498 renal
OVCAR-4 ovarian = test system: OVCAR-4 ovarian
SF-539 CNS = test system: SF-539 CNS
NCI-H226 lung = test system: NCI-H226 lung
SK-MEL-2 melanoma = test system: SK-MEL-2 melanoma
COLO 205 colon = test system: COLO 205 colon
UO-31 renal = test system: UO-31 renal
MDA-N = test system: MDA-N
RPMI-8226 leukemia = test system: RPMI-8226 leukemia
SR leukemia = test system: SR leukemia
ACHN renal = test system: ACHN renal
SNB-19 CNS = test system: SNB-19 CNS
SNB-75 CNS = test system: SNB-75 CNS
SF-295 CNS = test system: SF-295 CNS
SN12C renal = test system: SN12C renal
BT-549 breast = test system: BT-549 breast
CAKI-1 renal = test system: CAKI-1 renal
HT29 colon = test system: HT29 colon
NCI-H522 lung = test system: NCI-H522 lung
SW-620 colon = test system: SW-620 colon
MDA-MB-435 = test system: MDA-MB-435
MCF7 breast = test system: MCF7 breast
LOX IMVI melanoma = test system: LOX IMVI melanoma
RXF 393 renal = test system: RXF 393 renal
MALME-3M melanoma = test system: MALME-3M melanoma
NCI-H460 lung = test system: NCI-H460 lung
HL-60(TB) leukemia = test system: HL-60(TB) leukemia
OVCAR-3 ovarian = test system: OVCAR-3 ovarian
OVCAR-8 ovarian = test system: OVCAR-8 ovarian
U251 CNS = test system: U251 CNS
HCC-2998 colon = test system: HCC-2998 colon
UACC-257 melanoma = test system: UACC-257 melanoma
HOP-92 NSCLC = test system: HOP-92 NSCLC
K-562 leukemia = test system: K-562 leukemia
SK-OV-3 ovarian = test system: SK-OV-3 ovarian
786-0 renal = test system: 786-0 renal
UACC-62 melanoma = test system: UACC-62 melanoma
SF-268 CNS = test system: SF-268 CNS
HOP-62 NSCLC = test system: HOP-62 NSCLC
TK-10 renal = test system: TK-10 renal
CCRF-CEM leukemia = test system: CCRF-CEM leukemia
MDA-MB-231 breast = test system: MDA-MB-231 breast
A549 NSCLC = test system: A549 NSCLC
T-47D breast = test system: T-47D breast
HCT-116 colon = test system: HCT-116 colon
NCI/ADR-RES ovarian = test system: NCI/ADR-RES ovarian
HS 578T breast = test system: HS 578T breast
DU-145 prostate = test system: DU-145 prostate
OVCAR-5 ovarian = test system: OVCAR-5 ovarian
M14 melanoma = test system: M14 melanoma
SK-MEL-5 melanoma = test system: SK-MEL-5 melanoma
NCI-H23 lung = test system: NCI-H23 lung
KM12 colon = test system: KM12 colon

Compound `O=C(c1ccc(Cl)c(Cl)c1)N(Cc1cccnc1)C(=S)N(Cc1cccnc1)C(=O)c1ccc(Cl)c(Cl)c1` has a TGI (MOLT-4 leukemia) greater than 100 µM, a TGI (HCT-15 colon) of 64.2 µM and a TGI (PC-3 prostate) of 83.4 µM. The TGI (EKVX NSCLC) was greater than 100 µM, the TGI (SK-MEL-28 melanoma) was greater than 100 µM and the TGI (A498 renal) was 79.4 µM. It also gave a TGI (OVCAR-4 ovarian) greater than 100 µM, a TGI (SF-539 CNS) of 45.5 µM and a TGI (NCI-H226 lung) greater than 100 µM. For the same compound, the TGI (SK-MEL-2 melanoma) was 95.7 µM, the TGI (COLO 205 colon) was 32.2 µM and the TGI (UO-31 renal) was 33.2 µM. The TGI (MDA-N) was greater than 100 µM, the TGI (RPMI-8226 leukemia) was greater than 100 µM and the TGI (SR leukemia) was greater than 100 µM. For the same compound, the TGI (ACHN renal) was 36.2 µM, the TGI (SNB-19 CNS) was 88.4 µM and the TGI (SNB-75 CNS) was greater than 100 µM. It also gave a TGI (SF-295 CNS) of 67.1 µM, a TGI (SN12C renal) of 52.2 µM and a TGI (BT-549 breast) of 65.8 µM. The TGI (CAKI-1 renal) was greater than 100 µM, the TGI (HT29 colon) was 65.1 µM and the TGI (NCI-H522 lung) was 41.9 µM. For the same compound, the TGI (SW-620 colon) was greater than 100 µM, the TGI (MDA-MB-435) was greater than 100 µM and the TGI (MCF7 breast) was greater than 100 µM. For the same compound, the TGI (LOX IMVI melanoma) was greater than 100 µM, the TGI (RXF 393 renal) was 79.6 µM and the TGI (MALME-3M melanoma) was greater than 100 µM. It also gave a TGI (NCI-H460 lung) greater than 100 µM, a TGI (HL-60(TB) leukemia) greater than 100 µM and a TGI (OVCAR-3 ovarian) of 78.3 µM. It also gave a TGI (OVCAR-8 ovarian) of 84.5 µM, a TGI (U251 CNS) greater than 100 µM and a TGI (HCC-2998 colon) of 39.8 µM. The TGI (UACC-257 melanoma) was 91.5 µM, the TGI (HOP-92 NSCLC) was greater than 100 µM and the TGI (K-562 leukemia) was greater than 100 µM. The TGI (SK-OV-3 ovarian) was greater than 100 µM, the TGI (786-0 renal) was 54.2 µM and the TGI (UACC-62 melanoma) was greater than 100 µM. For the same compound, the TGI (SF-268 CNS) was greater than 100 µM, the TGI (HOP-62 NSCLC) was 83.6 µM and the TGI (TK-10 renal) was 79.8 µM. The TGI (CCRF-CEM leukemia) was greater than 100 µM, the TGI (MDA-MB-231 breast) was 99.1 µM and the TGI (A549 NSCLC) was greater than 100 µM. For the same compound, the TGI (T-47D breast) was greater than 100 µM, the TGI (HCT-116 colon) was 63.4 µM and the TGI (NCI/ADR-RES ovarian) was greater than 100 µM. For the same compound, the TGI (HS 578T breast) was greater than 100 µM, the TGI (DU-145 prostate) was greater than 100 µM and the TGI (OVCAR-5 ovarian) was 71.7 µM. For the same compound, the TGI (M14 melanoma) was 52.9 µM, the TGI (SK-MEL-5 melanoma) was 75.7 µM and the TGI (NCI-H23 lung) was greater than 100 µM. It also gave a TGI (KM12 colon) greater than 100 µM.
